Measurements from patent US20100081200A1, “FORMULATIONS AND METHODS FOR CULTURING STEM CELLS” (priority 2007, published 2010).

How the values were obtained:
[1] = test system: human embryonic stem cells; assay: Effect of different vitamins on the undifferentiated growth of human embryonic stem cells; format: cell-based; settings: for effect on undifferentiated growth / number of undifferentiated colonies (in words): retinol 20 μM, nicotinamide 5 mM and 10 mM, Vitamin Mix 1%
Protocol: The effect of different vitamins on the undifferentiated growth of human embryonic stem cells was tested by providing retinol (20 μM), nicotinamide (5 mM and 10 mM) or commercial Vitamin Mix (1%) containing nicotinamide but not retinol (MEM Vitamin Solution (100x), cat. No. 11120-037, provided by Gibco/Invitrogen) to human embryonic stem cells (Table 1). […] Vitamin Mix had no effect on the undifferentiated growth of embryonic stem cells.
Accordingly, the serum replacement according to some embodiments of the present invention is a xeno-free formulation comprising at least retinol. In some embodiments, the concentration range of retinol in the serum replacement is such that the final culture medium comprises from about 0.25 mg/l to about 0.5 mg/l, more specifically about 0.57 mg/l retinol. Accordingly, in embodiments wherein basal medium is to be supplemented with 20% (vol/vol) serum replacement, said serum replacement comprises retinol from about 1.25 mg/l to about 2.5 mg/l, more specifically about 2.85 mg/l.

[2] = test system: embryonic stem cells; assay: Effect of lithium chloride on embryonic stem cells; format: cell-based
Excerpt: Thus, in some specific embodiments, the serum replacement is devoid lithium chloride.

[3] = test system: hESCs (Regea 07/046, HS401); assay: Retinol: proliferation and expression of stem cell markers; format: cell-based, human
Protocol: FIG. 10A) Bright-field microscopic image of hESCs (Regea 07/046) at day 3 cultured in the present culture medium without retinol for 5 passages. FIG. 10B) Bright-field microscopic image of hESCs (Regea 07/046) at day 3 cultured in the present culture medium containing 2.0 μM retinol for 5 passages. The size of the colonies is larger in the presence of retinol when compared to the colonies cultured without retinol. Scale bar 500 μm. FIGS. 10C-D) Fluorescent microscopic image of hESCs (HS401) cultured in the present culture medium containing 2.0 μM retinol for 12 passages showing positive expression of
Nanog and TRA-1-81. Insets represent DAPI staining. Scale bar 200 μm. FIG. 10E) Cell proliferation analysis of hESC line Regea 07/046 cultured in the present culture medium without and in the presence of 0.5, 2.0 and 3.5 μM retinol for 10 passages. FIG. 10F) Quantitative RT-PCR analysis of Oct4, GDF3, DNMT3B, TDGF1 and Nanog expression in hESC line Regea 07/046 cultured in the present culture medium without and in the presence of 0.5, 2.0 and 3.5 μM retinol for 10 passages.
Retinol was selected to be further evaluated in the maintenance of undifferentiated hESCs. […] In the presence of 2.0 μM retinol, the growth of the colonies started earlier and already at day 3 the size of the colonies was bigger (FIG. 10A-10B).

[4] = test system: hESCs (HS401 cell line); assay: Lipids and lipid derivatives: visual evaluation of morphology, size and thickness of undifferentiated colonies; format: cell-based, human; settings: in both hES medium and the present culture medium
Excerpt: (§1) FIGS. 9A-9B show the morphology and differentiation stage of hESCs cultured in the present culture medium and in the presence of lipids and lipid derivatives. UD, PD and DIFF represent undifferentiated, partly differentiated and differentiated hESC colonies, respectively. FIG. 9A) HS401 cell line cultured in the present culture medium supplemented with different lipids and lipid derivatives. FIG. 9B) HS401 cell line cultured in control hES medium supplemented with different lipids and lipid derivatives.
Various lipids and lipid derivatives were tested in the culture medium (RegES) according to some embodiments of the present invention and in the conventional hES culture medium containing KO-SR (Knockout serum replacement, Invitrogen). General morphology, as well as the size and thickness of the undifferentiated colonies were evaluated before each passaging based on visual perceptions (Table 7).

[5] = test system: hESC colonies (HS401 cell line); assay: Lipids and lipid derivatives: classification of hESC colonies as undifferentiated, partly differentiated, differentiated; format: cell-based, human
Excerpt: as §1
Furthermore, the hESC colonies were classified into three categories; undifferentiated, partly differentiated and differentiated. Number of each colony type was calculated before each passaging. Later, a percentage value for each colony type of the total amount of colonies was calculated (FIG. 9).

[6] = test system: hESC line Regea 07/046; assay: Activin A: proliferation assay, FACS and qRT-PCR of pluripotency markers; format: cell-based, human
Protocol: FIG. 11B) Quantitative RT-PCR analysis of Nanog, Oct4, GDF3, DNMT3B, GABRB3 and GDF3 expression in hESC line Regea 07/046 cultured in the present culture medium without and in the presence of 5 ng/ml and 10 ng/ml Activin A and hES control medium for 10 passages. FIG. 11C) FACS analysis of SSEA4 and TRA-1-60 stem cell markers of hESC line Regea 07/046 cultured in the present culture medium without and in the presence of 5 ng/ml and 10 ng/ml Activin A and hES control medium for 10 passages.

[7] = test system: embryonic stem cell colonies; assay: Effect of fetuin and α-fetoprotein on growth rate and size of embryonic stem cell colonies; format: cell-based; settings: human serum albumin 10 mg/ml
Protocol: All formulations shown contained human serum albumin at a concentration of 10 mg/ml.
The composition of the formulation according to this embodiment of the present invention was further optimized as described above in Table 2.

NC(=O)c1cccnc1 [Nicotinamide, nicotinamide]
effect on undifferentiated growth / number of undifferentiated colonies (in words) [1]: promoting their differentiation

[Cl-].[Li+] [lithium chloride]
effect on embryonic stem cells [2]: may be harmful for embryonic stem cells resulting in differentiation

CC1=C(/C=C/C(C)=C/C=C/C(C)=C/CO)C(C)(C)CCC1 [Retinol, retinol]
Nanog relative expression level ([3]; 2.0 μM and 3.5 μM, qRT-PCR): over twentyfold
proliferation rate ([3]; 2.0 μM or 3.5 μM, compared to without retinol or 0.5 μM): almost two-fold
proliferation of hESCs and expression of hESC specific markers ([3]; 2.0 μM or above): improved the proliferation of hESCs as well as induced the expression of hESC specific markers
size of the colonies ([3]; 2.0 μM, day 3): bigger
morphology and number of undifferentiated colonies ([3]; 0.1-0.5 μM): not effective
immunocytochemical staining of Nanog and TRA-1-81 ([3]; cultured in the presence of retinol): showed expression of stem cell markers Nanog and TRA-1-81
morphology of the undifferentiated colonies (in words) [4]: improved the morphology
maintaining stem cells in an undifferentiated state ([1]; 2 μM): effective
effect on undifferentiated growth / number of undifferentiated colonies (in words) [1]: increased the number of undifferentiated colonies considerably
number of undifferentiated and differentiated colonies ([5]; in hES culture medium, compared to control hES medium): number of undifferentiated colonies increased and the number of differentiated colonies decreased
number of undifferentiated and differentiated colonies ([5]; in the present culture medium, compared to control hES or Albumax-RegES medium): number of undifferentiated colonies increased and the number of differentiated colonies decreased

Activin A: Activin A, growth factor supplement of the culture medium
proliferation rate ([6]; 5 or 10 ng/ml in the present culture medium, compared to without Activin A): almost two-fold
expression of pluripotency supporting markers ([6]; FACS and qRT-PCR, transcriptional and translational level): increased the expression

B1: F: Fetuin, commercially available fetal carrier protein (protein, UniProt P12763 19-359, looked up)
Alpha-2-HS-glycoprotein: IPLDPVAGYKEPACDDPDTEQAALAAVDYINKHLPRGYKHTLNQIDSVKVWPRRPTGEVYDIEIDTLETTCHVLDPTPLANCSVRQQTQHAVEGDCDIHVLKQDGQFSVLFTKCDSSPDSAEDVRKLCPDCPLLAPLNDSRVVHAVEVALATFNAESNGSYLQLVEISRAQFVPLPVSVSVEFAVAATDCIAKEVVDPTKCNLLAEKQYGFCKGSVIQKALGGEDVRVTCTLFQTQPVIPQPQPDGAEAEAPSAVPDAAGPTPSAAGPPVASVVVGPSVVAVPLPLHRAHYDLRHTFSGVASVESSSGEAFHVGKTPIVGQPSIPGGPVRLCPGRIRYFKI
concentration that increased colony size and growth rate the most [7]: 0.1 mg/mL

B2: A: α-fetoprotein, commercially available fetal carrier protein (protein, UniProt P02771 19-609, looked up)
Alpha-fetoprotein: RTLHRNEYGIASILDSYQCTAEISLADLATIFFAQFVQEATYKEVSKMVKDALTAIEKPTGDEQSSGCLENQLPAFLEELCHEKEILEKYGHSDCCSQSEEGRHNCFLAHKKPTPASIPLFQVPEPVTSCEAYEEDRETFMNKFIYEIARRHPFLYAPTILLWAARYDKIIPSCCKAENAVECFQTKAATVTKELRESSLLNQHACAVMKNFGTRTFQAITVTKLSQKFTKVNFTEIQKLVLDVAHVHEHCCRGDVLDCLQDGEKIMSYICSQQDTLSNKITECCKLTTLERGQCIIHAENDEKPEGLSPNLNRFLGDRDFNQFSSGEKNIFLASFVHEYSRRHPQLAVSVILRVAKGYQELLEKCFQTENPLECQDKGEEELQKYIQESQALAKRSCGLFQKLGEYYLQNAFLVAYTKKAPQLTSSELMAITRKMAATAATCCQLSEDKLLACGEGAADIIIGHLCIRHEMTPVNPGVGQCCTSSYANRRPCFSSLVVDETYVPPAFSDDKFIFHKDLCQAQGVALQTMKQEFLINLVKQKPQITEEQLEAVIADFSGLLEKCCQGQEQEVCFAEEGQKLISKTRAALGV
concentration that increased colony size and growth rate the most [7]: 0.05 mg/mL
